Where two headings read alike, the source gives them in different places.
Assays:
[1] = tested on: Botrytis cinerea; experiment: Synergistic Growth Inhibition Assay (MIC / FIC index, resazurin, 96-well) on Botrytis cinerea; format: cell-based; details: Botrytis cinerea, Botrytis cinerea
Protocol: (§1) In some embodiments, the synergistic action between the pesticidal active ingredient, and the at least one C4-C10 (or alternatively C11 or C12) saturated or unsaturated aliphatic acid components of the pesticidal compositions according to embodiments of the present disclosure was tested using a Synergistic Growth Inhibition Assay, which is derived from and related to a checkerboard assay as is known in the art for testing of combinations of antimicrobial agents. In the Synergistic Growth Inhibition Assay used in accordance with some embodiments of the present disclosure, multiple dilutions of combinations of pesticidal active ingredient and at least one C4-C10 saturated or unsaturated aliphatic acid agents are tested in individual cells for inhibitory activity against a target pest or pathogenic organism. In one such embodiment, the combinations of pesticidal active ingredient and C4-C10 (or alternatively C11 or C12) saturated or unsaturated aliphatic acid agents may preferably be tested in decreasing concentrations. In a further such embodiment, the combinations of pesticidal active ingredient and C4-C10 (or alternatively C11 or C12) saturated or unsaturated aliphatic acid agents may be tested in increasing concentrations. These multiple combinations of the pesticidal active ingredient and at least one C4-C10 (or alternatively C11 or C12) saturated or unsaturated aliphatic acid agents may be prepared in 96-well microtiter plates. In one such embodiment, the Synergistic Growth Inhibition Assay then comprises rows which each contain progressively decreasing concentrations of the pesticidal active ingredient and one or more C4-C10 (or alternatively C11 or C12) saturated or unsaturated aliphatic acid agents to test for the MIC of the agents in combination at which growth of the target pest or pathogen is inhibited. Thus, each well of the microtiter plate is a unique combination of the two agents, at which inhibitory efficacy of the combination against the target pest or pathogen can be determined.
(§2) In one embodiment according to the present disclosure, for each row of microtiter cells in the Synergistic Growth Inhibition Assay, the FIC index is calculated from the lowest concentration of the pesticidal active ingredient and one or more C4-C10 saturated or unsaturated aliphatic acid agents necessary to inhibit growth of a target pest or pathogen. The FIC of each component is derived by dividing the concentration of the agent present in that well of the microtiter plate by the minimal inhibitory concentration (MIC) needed of that agent alone to inhibit growth of the target pest or pathogen. The FIC index is then the sum of these values for both agents in that well of the microtiter plate. The FIC index is calculated for each row as follows:
(§3) FICindex=MICa/MICA+MICb/MICB
(§4) Fractional inhibitory concentration indices may then used as measure of synergy. […] When the FIC index is equal to 1, the combination is additive.
(§5) Then, serial dilutions of these initial compositions in successive wells in the row of the microtiter plate were used to assay the pesticidal composition under the same conditions to determine the concentration of the composition combining the two agents corresponding to the microtiter well in which growth inhibition of the target pest or organism ceases.
(§6) Similarly to as described above, Resazurin was used as an indicator of growth or inhibition of growth of Botrytis cinerea in the exemplary Synergistic Growth Inhibition Assay. In addition to the color change of the resazurin, an optical or visual examination of the microtiter well may also be made to additionally determine the presence of growth or inhibition of growth of the Botrytis cinerea.

[2] = tested on: Sclerotinia sclerotiorum; experiment: Synergistic Growth Inhibition Assay (MIC / FIC index, resazurin, 96-well) on Sclerotinia sclerotiorum; format: cell-based; details: for MIC: Sclerotinia sclerotiorum
Protocol: as §1, §2, §3, §4, §5
as §6, with “Sclerotinia sclerotiorum” for “Botrytis cinerea”, “Sclerotinia sclerotiorum.” for “Botrytis cinerea.”

[3] = tested on: Alternaria solani; experiment: Synergistic Growth Inhibition Assay (MIC / FIC index) on Alternaria solani; format: cell-based; details: for MIC (A): Compound A alone
Protocol: as §1, §2, §3, §4, §5
Alternatively, other suitable representative pest or pathogen organisms may be used to determine synergy of combinations of pesticidal active ingredient agents and one or more C4-C10 (or alternatively C11 or C12) saturated or unsaturated aliphatic acid agents in accordance with embodiments of the present disclosure. For example, other representative fungal pathogens may be used, such as but not limited to Leptosphaeria maculans, Sclerotinia spp. and Verticillium spp.

[4] = tested on: Fusarium oxysporum; experiment: Synergistic Growth Inhibition Assay (MIC / FIC index, resazurin, 96-well) on Fusarium oxysporum; format: cell-based; details: for MIC: Fusarium oxysporum
Protocol: as §1, §2, §3, §4, §5
Resazurin dye (also known as Alamar blue dye) was used as an indicator to determine the presence of growth or inhibition of growth of Fusarium oxysporum in the wells of the 96 well microtiter plates used in the exemplary Synergistic Growth Inhibition Assay. In addition to the color change of the resazurin dye in the presence of growth of the Fusarium oxysporum, an optical or visual examination of the microtiter well may also be made to additionally determine the presence of growth or inhibition of growth of the Fusarium oxysporum.

[5] = tested on: Trichoplusia ni; experiment: In-vitro insecticidal efficacy of Entrust SC (spinosad) with saturated and unsaturated aliphatic acids on artificial diet, Abbott and Colby formulae; format: in vivo, Trichoplusia ni (cabbage looper); details: Entrust SC 0.034 ppm ([…] spinosad); aliphatic acid (salt) 500 ppm; Abbott-corrected
Protocol: An artificial diet suitable for Trichoplusia ni (cabbage looper caterpillar) was prepared from a commercially available general purpose lepidoptera artificial diet premix (General Purpose Lepidoptera Diet available from Frontier Scientific Services, Newark, Del.) mixed in agar media and then heated to liquify the media. The liquid artificial diet media was then used to fill each well of a 96-well treatment plate with 200 uL of artificial diet media, which was allowed to solidify at room temperature and stored at approximately 4 C.
A 20 uL treatment sample of each treatment formulation was then placed on top of the solidified artificial diet media in each well of the 96 well plates and allowed to dry overnight. The following day, one neonate Trichoplusia ni (cabbage looper) larva (hatched from eggs obtained from the Natural Resource Canada insect research facility in Sault-Ste-Marie, ON, Canada) was added to each well of the plate, and their mortality rate was evaluated after 5 days, to determine the insecticidal efficacy of the Entrust® SC treatment alone, each exemplary unsaturated or saturated aliphatic acid (and salt) alone, and each combination of spinosad (as Entrust® SC) and unsaturated or saturated aliphatic acid (and salt). Each experiment contained 3 replicates.
While for SF<1, antagonism is present and for SF=1, the efficacy of the compounds is merely additive.

[6] = 48 h, Compound B alone, 48 hours incubation, read-out: MIC (B)
[7] = Alternaria solani, Compound B alone, 7 days incubation, read-out: MIC (B)
[8] = Alternaria solani, Compound B alone, Alternaria solani, incubation period of 7 days, read-out: MIC (B)
[9] = 96 h, Table 58, Compound B = saturated aliphatic acid, alone or in combination with oregano oil, incubation for 4 days, read-out: MIC (B)
[10] = 24 h, Table 75, Compound B = saturated aliphatic acid, alone or in combination with wintergreen oil, incubation period of 24 hours, read-out: MIC (B)
[11] = 24 h, Table 78, Compound B = saturated aliphatic acid, alone or in combination with oregano oil, incubation period of 24 hours, read-out: MIC (B)
[12] = Compound A alone, incubation period of 48 hours

## CCCCC(CC)C(=O)O (centres unmarked) [2-ethylhexanoic acid]
[1]; [6]
  MIC: 312 µg/mL
[1]; 48 h, Compound B alone, incubation period of 48 hours, read-out: MIC (B)
  MIC: 312 µg/mL
[2]; Compound B alone, incubation period of 7 days, read-out: MIC (B)
  MIC: 625 µg/mL
[3]; [7]
  MIC: 312 µg/mL

## CCCCCCCCC(C)C(=O)O (centres unmarked) [2-methyldecanoic acid]
[4]; [6]
  MIC: 62.5 µg/mL
[1]; 48 h, Compound A alone, incubation period of 48 hours, read-out: MIC (A)
  MIC: 15.6 µg/mL
[3]; [7]
  MIC: 1000 µg/mL
[3]; [8]
  MIC: 125 µg/mL

## CCCCCCC(C)C(=O)O (centres unmarked) [2-methyloctanoic acid]
[4]; [6]
  MIC: 156 µg/mL
[3]; [7]
  MIC: 625 µg/mL
[3]; [8]
  MIC: 156 µg/mL

## O=C(O)CCCCCCCO [8-hydroxyoctanoic acid]
[4]; 48 h, read-out: MIC (B), Compound B alone, 48 hours incubation
  MIC: 5000 µg/mL
[4]; 48 h, read-out: MIC (B), Compound B alone, incubation period of 48 hours
  MIC: 5000 µg/mL
[2]; read-out: MIC (B), Compound B alone, 7 days incubation
  MIC: 2500 µg/mL
[2]; read-out: MIC (B), Compound B alone, incubation period of 7 days
  MIC: 5000 µg/mL
[3]; Alternaria solani, read-out: MIC (B), Compound B alone, 7 days incubation
  MIC: 2500 µg/mL

## CCCCCCCCCC(=O)O [Decanoic acid, decanoic acid]
[4]; 24 h, Table 53, Compound B = saturated aliphatic acid, alone or in combination with wintergreen oil, incubation for 24 hours, read-out: MIC (B)
  MIC: 62.5 µg/mL
[4]; 96 h, Compound B alone, incubation for 4 days, read-out: MIC (B)
  MIC: 62.5 µg/mL
[5]
  Observed Efficacy, W (%): 0%

## CCCCCCC(=O)O [Heptanoic acid, heptanoic acid]
[4]; 96 h, Table 54, Compound B = saturated aliphatic acid, alone or in combination with peppermint oil, incubation for 4 days, read-out: MIC (B)
  MIC: 312 µg/mL
[4]; 96 h, Table 55, Compound B = saturated aliphatic acid, alone or in combination with spearmint oil, incubation for 4 days, read-out: MIC (B)
  MIC: 156 µg/mL
[4]; [9]
  MIC: 78.1 µg/mL
[1]; [10]
  MIC: 39.1 µg/mL
[1]; [11]
  MIC: 78.1 µg/mL
[1]; 96 h, Table 76, Compound B = saturated aliphatic acid, alone or in combination with spearmint oil, incubation period of 4 days, read-out: MIC (B)
  MIC: 78.1 µg/mL
[2]; Table 68, Compound B = saturated aliphatic acid, alone or in combination with clove leaf oil, incubation period of 7 days, read-out: MIC (B)
  MIC: 78.1 µg/mL
[2]; Table 70, Compound B = saturated aliphatic acid, alone or in combination with rosemary oil, incubation period of 7 days, read-out: MIC (B)
  MIC: 78.1 µg/mL
[5]
  Observed Efficacy, W (%): 9.1%

## CCCCCC(=O)O [Hexanoic acid, hexanoic acid]
[4]; 24 h, read-out: MIC (B), Table 51, Compound B = saturated aliphatic acid, alone or in combination with thyme oil, incubation for 24 hours
  MIC: 78.1 µg/mL
[4]; 24 h, read-out: MIC (B), Table 52, Compound B = saturated aliphatic acid, alone or in combination with garlic oil, incubation for 24 hours
  MIC: 156 µg/mL
[4]; 96 h, read-out: MIC (B), Table 54, Compound B = saturated aliphatic acid, alone or in combination with peppermint oil, incubation for 4 days
  MIC: 156 µg/mL
[4]; 96 h, read-out: MIC (B), Table 58, Compound B = saturated aliphatic acid, alone or in combination with oregano oil, incubation for 4 days
  MIC: 156 µg/mL
[1]; 24 h, read-out: MIC (B), Table 75, Compound B = saturated aliphatic acid, alone or in combination with wintergreen oil, incubation period of 24 hours
  MIC: 39.1 µg/mL
[1]; 24 h, read-out: MIC (B), Table 78, Compound B = saturated aliphatic acid, alone or in combination with oregano oil, incubation period of 24 hours
  MIC: 156 µg/mL
[1]; 96 h, read-out: MIC (B), Table 74, Compound B = saturated aliphatic acid, alone or in combination with thyme oil, incubation period of 4 days
  MIC: 312 µg/mL
[1]; 96 h, read-out: MIC (B), Table 76, Compound B = saturated aliphatic acid, alone or in combination with spearmint oil, incubation period of 4 days
  MIC: 312 µg/mL
[1]; Compound B (aliphatic acid) alone, 2-fold dilutions, incubation period of 48 hours
  MIC (B): 78.12 µg/mL
[5]
  Observed Efficacy, W (%): 27.3%

## CCCCCCCCC(=O)O [Nonanoic acid, nonanoic acid]
[4]; 24 h, read-out: MIC (B), Table 53, Compound B = saturated aliphatic acid, alone or in combination with wintergreen oil, incubation for 24 hours
  MIC: 156 µg/mL
[4]; [9]
  MIC: 78.1 µg/mL
[4]; 96 h, read-out: MIC (B), Table 55, Compound B = saturated aliphatic acid, alone or in combination with spearmint oil, incubation for 4 days
  MIC: 156 µg/mL
[1]; [10]
  MIC: 39.1 µg/mL
[1]; [11]
  MIC: 78.1 µg/mL
[5]
  Observed Efficacy, W (%): 0%

## CO/C=C(/C(=O)OC)c1ccccc1COc1cccc(C(F)(F)F)n1 [Picoxystrobin, reference compound]
[1]; [12]
  MIC (A): 250 µg/mL
[2]; Compound A alone, 7 days incubation
  MIC (A): 500 µg/mL
[3]; Alternaria solani, incubation period of 7 days
  MIC (A): 500 µg/mL

## CCCCCCC/C=C/C(=O)O [Trans-2 decenoic acid]
[1]; Compound B alone, incubation period of 48 hours
  MIC (B): 39.06 µg/mL
[5]
  Observed Efficacy, W (%): 0%

## CCC/C=C/C(=O)O [Trans-2-hexenoic acid, trans-2-hexenoic acid]
[4]; Compound B alone, 24 hour incubation
  MIC (B): 312.5 µg/mL
[5]
  Observed Efficacy, W (%): 0%

## Mancozeb [reference compound]
[1]; [12]
  MIC (A): 31.25 µg/mL
[3]; 7 days incubation
  MIC (A): 500 µg/mL

Reference: US20210352895A1, “SYNERGISTIC PESTICIDAL COMPOSITIONS AND METHODS FOR DELIVERY OF ACTIVE INGREDIENTS” (0903608 B.C. Ltd., priority 2018, published 2021)
